For assay [1], the target named is T1, human glutathione S-transferase P1-1 (GSTP1-1) (Homo sapiens, UniProt P09211).
T1 construct: made in house; host or cells: E. coli
Nature of the assay: CDNB assay of GST activity and inhibition, GST P1-1. Format: biochemical. The note with it: for IC50: first value of the cell GSTP1-1/GSTA1-1, CDNB assay, 20 nM GST; for fold greater affinity for GSTP1-1 (lower IC50) than the ligand domain alone: versus corresponding ligand domain (GS-NB/IId, IIg, IIId, IVk). Here is the method:
(§1) GST isozymes. […] The enzyme was incubated with 10 mM dithiothreitol to ensure complete reduction of cysteine residues, followed by extensive dialysis to remove the reducing agent. […] Plasmodium GST (pGST) was a gift from Dr. Katja Becker (Justus Liebig University of Giessen), and murine GSTP and GSTA were gifts from Dr. Dave Eaton (University of Washington). Except where otherwise stated (i.e. testing of pGST in Example 6.4.5 and testing of murine GSTs in Example 6.4.7), GST isozymes tested were from human.
(§2) GST assays. Assays of GST activity and inhibition were performed with chloro-2,4-dinitrobenzene (CDNB) as the electrophilic substrate. Except where otherwise stated, GST concentration was 20 nM. […] Rates were determined by measuring absorption at 340 nm (λmax of glutathione-dinitrobenzene) for 1 minute on a Beckman DU 7400 spectrophotometer. For IC50 determinations, assays were performed at inhibitor concentrations ranging over at least […] (from 100-fold above the IC50 to 100-fold below). Data were fit to a sigmoidal dose-response function using GraphPad Prism to determine the 50% inhibitory concentration.

Assay [2] deals with T2, human glutathione S-transferase A1-1 (GSTA1-1) (Homo sapiens, UniProt P08263).
T2 construct: made in house; host or cells: E. coli
T2 sequence (P08263 1-222): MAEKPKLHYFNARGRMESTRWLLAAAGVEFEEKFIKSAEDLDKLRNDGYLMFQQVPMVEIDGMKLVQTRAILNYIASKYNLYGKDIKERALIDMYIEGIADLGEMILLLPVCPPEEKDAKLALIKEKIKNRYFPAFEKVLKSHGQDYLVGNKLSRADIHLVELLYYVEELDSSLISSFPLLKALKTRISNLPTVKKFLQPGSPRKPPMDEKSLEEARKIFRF
Nature of the assay: CDNB assay of GST activity and inhibition, GST A1-1. The class given is biochemical. The note with it: second value of the cell GSTP1-1/GSTA1-1, 20 nM GST. Here is the method: as §1, §2

Molecules are shown by their SMILES. Values joined by “and” are separate entries in the source; they are usually repeats but may differ in a detail not shown here. Equal entries are not always repeated.

The term IC50 denotes the point on the concentration scale where inhibition reaches its midpoint. A low value points to greater potency.

T1 sequence (P09211 2-210 limits assumed): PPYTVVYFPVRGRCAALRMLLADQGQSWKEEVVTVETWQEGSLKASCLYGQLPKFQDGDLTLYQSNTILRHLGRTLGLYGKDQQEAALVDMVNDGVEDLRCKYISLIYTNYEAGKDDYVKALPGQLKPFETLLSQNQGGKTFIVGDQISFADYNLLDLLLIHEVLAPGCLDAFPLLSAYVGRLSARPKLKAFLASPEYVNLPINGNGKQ

On to `NC(CCC(=O)NC(CSc1ccc(C(=O)OCCCOC(=O)c2cccc(C(=O)OCCCOC(=O)c3ccc(SCC(NC(=O)CCC(N)C(=O)O)C(=O)NCC(=O)O)c([N+](=O)[O-])c3)c2)cc1[N+](=O)[O-])C(=O)NCC(=O)O)C(=O)O` (stereo not drawn) [IIc], for which the concentration for half-maximal inhibition (IC50) in assay [1] was determined as 280 nM; in assay [2], 3300 nM.
The like results for `NC(CCC(=O)NC(CSCCCCCCCCCCOC(=O)CCCCCCCSCC(NC(=O)CCC(N)C(=O)O)C(=O)NCC(=O)O)C(=O)NCC(=O)O)C(=O)O` (stereo not drawn) [Ic] were, in that order, 80 nM and 160 nM.
`NC(=O)c1cc(CNC(=O)CCCNCCS(=O)(=O)c2cccc(Nc3cc(S(=O)(=O)O)c(N)c4c3C(=O)c3ccccc3C4=O)c2)cc(CNC(=O)CCCNCCS(=O)(=O)c2cccc(Nc3cc(S(=O)(=O)O)c(N)c4c3C(=O)c3ccccc3C4=O)c2)c1` [IIIh]: in assay [1], the IC50 was ~22 nM and 22 nM; the “fold greater affinity for GSTP1-1 (lower IC50) than the ligand domain alone” value is recorded as “approximately 220 fold”. In assay [2], the IC50 is greater than 1000 nM.
On to `NC(CCC(=O)NC(CSc1ccc(C(=O)OCCOC(=O)c2cccc(C(=O)OCCOC(=O)c3ccc(SCC(NC(=O)CCC(N)C(=O)O)C(=O)NCC(=O)O)c([N+](=O)[O-])c3)c2)cc1[N+](=O)[O-])C(=O)NCC(=O)O)C(=O)O` (stereo not drawn) [IIb], for which the IC50 in assay [1] turned out to be 2900 nM; in assay [2], 1600 nM.
For the molecule `Nc1c(S(=O)(=O)O)cc(Nc2cccc(S(=O)(=O)CCNCCOCCOCCOCCNCCS(=O)(=O)c3cccc(Nc4cc(S(=O)(=O)O)c(N)c5c4C(=O)c4ccccc4C5=O)c3)c2)c2c1C(=O)c1ccccc1C2=O` [IIIb], the figures for the half-maximal inhibitory concentration (IC50) in assay [1] and in assay [2] were 72 nM and greater than 100000 nM, respectively.
Regarding `CCNCCS(=O)(=O)c1cccc(Nc2cc(S(=O)(=O)O)c(N)c3c2C(=O)c2ccccc2C3=O)c1` [IIId*, reference compound], the IC50 is 5000 nM in assay [1] and greater than 100000 nM in assay [2].
For `NC(=O)c1cc(CNC(=O)CCNCCS(=O)(=O)c2cccc(Nc3cc(S(=O)(=O)O)c(N)c4c3C(=O)c3ccccc3C4=O)c2)cc(CNC(=O)CCNCCS(=O)(=O)c2cccc(Nc3cc(S(=O)(=O)O)c(N)c4c3C(=O)c3ccccc3C4=O)c2)c1` [IIIg] the same measures were 162 nM and 2500 nM.
As for `C=C(CC)C(=O)c1ccc(OCC(=O)Nc2cccc(NC(=O)COc3ccc(C(=O)C(=C)CC)c(Cl)c3Cl)c2)c(Cl)c1Cl` [IVa, Bis-1,3-ethacrynyl-phenylenediamine], the 50% inhibitory concentration (IC50) in assay [1] was greater than 10000 nM; in assay [2], 741 nM.
The like results for `NC(=O)c1cc(CNCCS(=O)(=O)c2cccc(Nc3cc(S(=O)(=O)O)c(N)c4c3C(=O)c3ccccc3C4=O)c2)cc(CNCCS(=O)(=O)c2cccc(Nc3cc(S(=O)(=O)O)c(N)c4c3C(=O)c3ccccc3C4=O)c2)c1` [IIIe] were, in that order, 557 nM and greater than 10000 nM.
Regarding `NC(=O)c1cccc(CNC(=O)CCCC(=O)NCSCC(NC(=O)CCC(N)C(=O)O)C(=O)NCC(=O)O)c1` (stereo not drawn) [Ih*, reference compound], the IC50 in assay [1] is 39300 nM; in assay [2], greater than 10000 nM.
For `NC(CCC(=O)NC(CSCCCCCCCCOC(=O)CCCCCCCSCC(NC(=O)CCC(N)C(=O)O)C(=O)NCC(=O)O)C(=O)NCC(=O)O)C(=O)O` (stereo not drawn) [Ia] the same measures were 360 nM and 200 nM.
On to `NC(=O)c1cc(CNC(=O)CCCCCNCCS(=O)(=O)c2cccc(Nc3cc(S(=O)(=O)O)c(N)c4c3C(=O)c3ccccc3C4=O)c2)cc(CNC(=O)CCCCCNCCS(=O)(=O)c2cccc(Nc3cc(S(=O)(=O)O)c(N)c4c3C(=O)c3ccccc3C4=O)c2)c1` [IIIi], for which the IC50 is 203 nM in assay [1] and greater than 1000 nM in assay [2].
Take `NC(=O)c1cc(CNC(=O)CCCCCCCNCCS(=O)(=O)c2cccc(Nc3cc(S(=O)(=O)O)c(N)c4c3C(=O)c3ccccc3C4=O)c2)cc(CNC(=O)CCCCCCCNCCS(=O)(=O)c2cccc(Nc3cc(S(=O)(=O)O)c(N)c4c3C(=O)c3ccccc3C4=O)c2)c1` [IIIj]: the half-maximal inhibitory concentration (IC50) was 267 nM in assay [1] and greater than 220 nM in assay [2].
Consider `C=C(CC)C(=O)c1ccc(OCC(=O)NCCC(=O)NCc2cc(CNC(=O)CCNC(=O)COc3ccc(C(=O)C(=C)CC)c(Cl)c3Cl)cc(C(N)=O)c2)c(Cl)c1Cl` [IVe], for which the concentration for half-maximal inhibition (IC50) in assay [1] was 1200 nM; in assay [2], 12 nM and 12.3 nM.
In the case of `CCC(CSCC(NC(=O)CCC(N)C(=O)O)C(=O)NCC(=O)O)C(=O)c1ccc(OCC(=O)NCCCC(=O)NCc2cccc(C(N)=O)c2)c(Cl)c1Cl` (stereo not drawn) [IIf*, reference compound], the values for the IC50 in assay [1] and in assay [2] were 1500 nM and 5830 nM, respectively.
As to `NC(=O)c1cccc(CNC(=O)CCCNCCS(=O)(=O)c2cccc(Nc3cc(S(=O)(=O)O)c(N)c4c3C(=O)c3ccccc3C4=O)c2)c1` [IIIl*, reference compound], in assay [1], the IC50 was determined as 854 nM and the “fold greater affinity for GSTP1-1 (lower IC50) than the ligand domain alone” value was “approximately 6 fold”. For the same molecule, the half-inhibitory concentration (IC50) in assay [2] is greater than 20000 nM.
Regarding `NC(=O)c1cc(CNC(=O)CCCNC(=O)CSCC(NC(=O)CCC(N)C(=O)O)C(=O)NCC(=O)O)cc(CNC(=O)CCCNC(=O)CSCC(NC(=O)CCC(N)C(=O)O)C(=O)NCC(=O)O)c1` (stereo not drawn) [Ig], the IC50 in assay [1] was 24800 nM; in assay [2] it was greater than 10000 nM.
For the molecule `NC(=O)c1cc(CNC(=O)CNCCS(=O)(=O)c2cccc(Nc3cc(S(=O)(=O)O)c(N)c4c3C(=O)c3ccccc3C4=O)c2)cc(CNC(=O)CNCCS(=O)(=O)c2cccc(Nc3cc(S(=O)(=O)O)c(N)c4c3C(=O)c3ccccc3C4=O)c2)c1` [IIIf], the IC50 in assay [1] is 437 nM; in assay [2], greater than 1000 nM.
Regarding `NC(CCC(=O)NC(CSCCCCCCCCCOC(=O)CCCCCCCSCC(NC(=O)CCC(N)C(=O)O)C(=O)NCC(=O)O)C(=O)NCC(=O)O)C(=O)O` (stereo not drawn) [Ib], the IC50 worked out at 300 nM in assay [1] and 340 nM in assay [2].
The like results for `C=C(CC)C(=O)c1ccc(OCC(=O)NCc2cc(CNC(=O)COc3ccc(C(=O)C(=C)CC)c(Cl)c3Cl)cc(C(N)=O)c2)c(Cl)c1Cl` [IVc] were, in that order, 992 nM and 29.7 nM.
As to `Nc1c(S(=O)(=O)O)cc(Nc2cccc(S(=O)(=O)CCNCCOCCOCCNCCS(=O)(=O)c3cccc(Nc4cc(S(=O)(=O)O)c(N)c5c4C(=O)c4ccccc4C5=O)c3)c2)c2c1C(=O)c1ccccc1C2=O` [IIIa], the IC50 is 44 nM in assay [1] and greater than 100000 nM in assay [2].
The like results for `Nc1c(S(=O)(=O)O)cc(Nc2cccc(S(=O)(=O)CCNCCCNC(=O)c3cccc(C(=O)NCCCNCCS(=O)(=O)c4cccc(Nc5cc(S(=O)(=O)O)c(N)c6c5C(=O)c5ccccc5C6=O)c4)c3)c2)c2c1C(=O)c1ccccc1C2=O` [IIIc] were, in that order, 440 nM and greater than 100000 nM.
As for `NC(CCC(=O)NC(CSCCCCCCCCCCCOC(=O)CCCCCCCSCC(NC(=O)CCC(N)C(=O)O)C(=O)NCC(=O)O)C(=O)NCC(=O)O)C(=O)O` (stereo not drawn) [Id], the concentration for half-maximal inhibition (IC50) in assay [1] turned out to be 200 nM; in assay [2], 110 nM.
On to `C=C(CC)C(=O)c1ccc(OCC(=O)NCCCCCCCC(=O)NCc2cc(CNC(=O)CCCCCCCNC(=O)COc3ccc(C(=O)C(=C)CC)c(Cl)c3Cl)cc(C(N)=O)c2)c(Cl)c1Cl` [IVh], for which, in assay [1], the IC50 was found to be 31 nM and the “fold greater affinity for GSTP1-1 (lower IC50) than the ligand domain alone” value is “approximately 129 fold”. Further, in assay [1] (versus IVj), the “fold lower IC50 for GSTP1-1 than the monovalent inhibitor” value amounted to 403 fold. For the same molecule, half-maximal inhibition in assay [2] (IC50) required 54 nM.
`C=C(CC)C(=O)c1ccc(OCC(=O)Nc2ccc(NC(=O)COc3ccc(C(=O)C(=C)CC)c(Cl)c3Cl)cc2)c(Cl)c1Cl` [IVb, Bis-1,4-ethacrynyl-phenylenediamine]: the 50% inhibitory concentration (IC50) is greater than 10000 nM in assay [1] and 1310 nM in assay [2].
